Source: US11400057B2, “Treatment of vulvar pain” (University of Rochester, priority 2018, dated 2022)
Entries after “also recorded” stand apart in the source; their conditions may differ.

Legend:
[1] = test system: prostaglandin E2 (PGE2) production by human vulvar fibroblasts; experiment: In vitro LPV model: PGE2 production by patient vestibular or vulvar fibroblasts; type: cell-based; settings: for PGE2 levels: post-treatment regimen: IL-1β 30 min first, then 5 nM for 18 hours plus booster dose for 6 hr, already activated cells, FIG. 4C; for PGE2 production: pre-treatment regimen, 5 nM, activated with IL-1β (10 pg/ml) 48 hr, vestibular and external vulvar fibroblasts, FIG. 4A
Protocol: (§1) FIGS. 4A, 4B, 4C, and 4D are a set of diagrams showing that PGE2 and IL-6 production is reduced by compounds of Formula (I). Patient vestibular or vulvar fibroblasts were pre-treated for 10 hours with Maresin land epi-Maresin 1 at a 5 nM concentration, then activated with IL-1β (Panel A; 10 pg/ml) or bradykinin (Panel B; 100 nM) for 48 hr. Culture media were collected and analyzed for PGE2 (Panel A) or IL-6 (Panel B) content. Patient fibroblasts were also activated first with IL-1β for 30 min then treated with 5 nM Maresin 1 for 18 hours, followed by a booster dose for 6 hr. Culture media were collected and analyzed for PGE2 (Panel C) or IL-6 (Panel D) content. Mean+/−SEM of n=3, ANOVA *p<0.05 vs. activation only (no compounds of Formula (I) (F (I))).
(§2) In this example, a fibroblast-based in vitro LPV model was established. Briefly, fibroblast strains were obtained from two regions (FIG. 1) of the lower genital tract of localized provoked vulvodynia (LPV) cases and pain-free controls in the manner described in Falsetta et al. Am J Obstet Gynecol 2015, vol. 213, pp. 38 e1-12 and Foster et al., Pain 2015, vol. 156, pp. 386-96.
(§3) Over 30 paired fibroblast strains obtained from LPV-afflicted cases (fulfilling Friedrich's Criteria)^25 and age/race-matched (critical variables influencing LPV),^26, 27 pain-free controls were obtained. All subjects who contributed to the library were premenopausal, denied oral corticosteroids, non-steroidal, immunomodulatory, or anti-inflammatory medication use, and reported an absence of systemic/cutaneous inflammatory conditions at the time of sample collection. Mechanical pain thresholds were determined (via a method of limits) (0.5-5 N) using a Wagner algometer. Fibroblast identity was confirmed by microscopy and fibroblast markers (vimentin, collagen); only low passage (˜4) cells are used.
(§4) In this example, assays were carried out to investigate the ability of compounds of Formula (I) to reduce pro-inflammatory and pro-pain mediator production from primary human cells in the in vitro LPV model described in Example 1.
(§5) The inventors used one of two treatment regimens proven effective in vulvar fibroblasts and other cells at low/nanomolar concentrations (1-100 nM): 1) overnight pre-treatment, followed by another treatment 30 min prior to stimulation with pro-inflammatory stimuli for 48 hr with a third dose of a compound of Formula (I) at 24 hr post-challenge, or 2) post-treatment a compound of Formula (I) after a 30 min pre-treatment with inflammatory stimuli, followed by a booster dose 18 hr later. Both treatment regimens are of interest, as compounds of Formula (I) are active throughout the inflammatory process.^5-7 Even the compound of Formula (I) administered after LPV onset are likely to prevent the worsening or spread of LPV pain.

[2] = test system: vulvar allodynia (pain threshold); experiment: Mouse model of LPV: Zymosan-induced vulvar allodynia, pain threshold by electronic von Frey; type: in vivo, C57BL/6 mouse; settings: C57BL/6 mice with established Zymosan-induced allodynia, topical daily 1 μg/mouse/day for 4 weeks
Description: FIGS. 6A, 6B and 6C are a set of photographs and diagrams showing pain testing for in vivo mouse vulvodynia model. Panel A: After Zymosan injection, inflammation and redness become apparent. Arrow indicates injection site. Panel B: Image showing how an electronic von Frey hair (Mousemet) is used to apply force to the mouse vulva. Panel C: Schematic of in vivo mouse model to establish then resolve vulvar allodynia. FIG. 7 is a diagram showing representative pain profile for a C57BL/6 mouse. […] In the mouse model, Zymosan (a pro-inflammatory yeast cell wall preparation) was used to induce sustained vulvar allodynia, measured by pain threshold testing. Inventors initially used a manual von Frey system (MvF)^24, but later switched to an electronic system as detailed herein. […] However, inventors implemented several modifications to improve the robustness of the model including the following: 1) use a genetically tractable inbred strain; 2) validation of the use of an electronic von Frey (EvF) system; 3) assessment of the impact of behavioral conditioning on pain response; 4) weekly collection of vulvovaginal lavages for pro-inflammatory mediator quantification; and 5) testing the ability of a selected compound of Formula (I) (e.g., Maresin 1) to modulate pain and inflammation in our new model. […]

[3] = test system: PGE2 in vaginal lavage; experiment: Mouse model of LPV: PGE2 content in vaginal lavage; type: in vivo, C57BL/6 mouse; settings: C57BL/6 mice with established Zymosan-induced allodynia, topical daily 1 μg/mouse/day for 4 weeks, FIG. 8
Description: FIG. 8 is a diagram showing that PGE2 in vaginal lavage is associated with pain threshold. After induction of allodynia for up to 6 weeks (indicated by reduced pain threshold, red line), Maresin 1 was applied to C57BL/6 mouse vulvas to reduce pain and increase pain threshold. PGE2 content in vaginal lavage samples (blue line) […], indicating pain-associated inflammation waning with treatment. SEM shown, n=8.
Using this approach, inventors confirmed that one could induce vulvar allodynia, measure pain responses via mechanical threshold determination, and assess treatment responses. However, inventors implemented several modifications to improve the robustness of the model including the following: 1) use a genetically tractable inbred strain; 2) validation of the use of an electronic von Frey (EvF) system; 3) assessment of the impact of behavioral conditioning on pain response; 4) weekly collection of vulvovaginal lavages for pro-inflammatory mediator quantification; and 5) testing the ability of a selected compound of Formula (I) (e.g., Maresin 1) to modulate pain and inflammation in our new model. […]

[4] = test system: interleukin-6 (IL-6) production by human vulvar fibroblasts; experiment: In vitro LPV model: IL-6 production by patient vestibular or vulvar fibroblasts; type: cell-based; settings: for IL-6 levels: post-treatment regimen: IL-1β 30 min first, then 5 nM for 18 hours plus booster dose for 6 hr, already activated cells, FIG. 4D; for IL-6 production: pre-treatment regimen, 5 nM, activated with bradykinin (100 nM) 48 hr, vestibular and external vulvar fibroblasts, FIG. 4B
Protocol: as §1, §2, §3, §4, §5

[5] = test system: PGE2 production from mouse vulvar tissue; experiment: Mouse vulvar explants (4 mm punch biopsy) stimulated with IL-1β: PGE2 production; type: cell-based; settings: FIG. 5
Protocol: FIG. 5 is a diagram showing that compounds of Formula (I) (F (I)) inhibit PGE2 production from mouse vulvar tissue. Mouse vulvar tissue (4 mm punch biopsies) was collected and bisected then pre-treated in culture medium with either Maresin 1 at indicated concentrations for 18 hours, followed by an additional 18 hours stimulation with IL-1β (10 pg/ml). Culture medium was collected and analyzed for PGE2 content. Mean+/−SEM; n=3 replicate cultures. ANOVA * p<0.05 vs. vehicle.
Inventors first confirmed that mouse vulvar tissues responded to compounds of Formula (I) treatment in vitro by culturing mouse vulvar explants (4 mm punch biopsy). The explants were stimulated with IL-1β, and then assays were carried to assess the ability of Maresin 1 to reduce PGE2 production under the established pre-treatment regimen.
It was also determined that these mice expressed several SPM receptors (e.g., ALX, GPR18). Therefore, inventors proceeded with testing responses to compounds of Formula (I) in the mouse model.

With `CC/C=C\C/C=C\C[C@H](O)\C=C/C=C/C=C/[C@H](O)C/C=C\CCC(=O)O` [Maresin 1, 7R,14S-dihydroxy-docosa-4Z,8E,10E,12Z,16Z,19Z-hexaenoic acid] the PGE2 levels [1] was “significantly reduced”, the PGE2 levels ([1]; listed as Maresin-1) was “highly effective in reducing” and the PGE2 production [1] was “significantly reduced”. For the same molecule, the pain threshold ([2]; FIG. 7, 8) was “complete restoration to the pre-induction thresholds; also recorded: values returned to baseline”, the pain threshold ([2]; FIG. 7, 8, listed as Maresin-1) was “increased pain thresholds” and the “PGE2 levels in vulvovaginal lavage” value [3] was “suppressed and maintained at levels below baseline”. For the same molecule, the “PGE2 levels in vulvovaginal lavage” value ([3]; listed as Maresin-1) was “suppressing PGE2 levels”, the IL-6 levels [4] was “significantly reduced” and the IL-6 levels ([4]; listed as Maresin-1) was “highly effective in reducing”. For the same molecule, the IL-6 production [4] was “significantly reduced”, the “PGE2 responses following IL-1β treatment” value ([5]; pre-treated 18 hours, then 18 hours IL-1β (10 pg/ml)) was “significantly suppressed” and the “lowest dose with significant suppression of PGE2 response” value ([5]; pre-treatment regimen, IL-1β (10 pg/ml)) was 1 nM.

For `CC/C=C\C/C=C\C[C@H](O)\C=C/C=C/C=C/[C@@H](O)C/C=C\CCC(=O)O` [epi-Maresin 1, 7S,14S-dihydroxy-docosa-4Z,8E,10E,12Z,16Z,19Z-hexaenoic acid], the PGE2 production [1] was “significantly reduced” and the IL-6 production [4] was “significantly reduced”.
